Reference: ChEMBL document CHEMBL1131565, “Aminopyrimidines with high affinity for both serotonin and dopamine receptors” (J Med Chem, 1998)

How the values were obtained:
D(3) dopamine receptor = D(3) dopamine receptor (Homo sapiens, UniProt P35462); test: biochemical
Description: Binding affinity determined by measuring displacement of [3H]spiperone from cloned Human Dopamine receptor D3 in CHO-K1 cells

D(2) dopamine receptor [1] = molecular target: T1, D(2) dopamine receptor (Homo sapiens, UniProt P14416); test: biochemical
Description: Binding affinity determined by measuring its ability to displace [3H]N-0437 radioligand in CHO-K1 cells on Cloned Human Dopamine receptor D2

[2] = molecular target: T2, 5-hydroxytryptamine receptor 1A (Rattus norvegicus, UniProt P19327); test: The binding affinity by measuring its ability to displace [3H]8-OH-DPAT radioligand in 5-hydroxytryptamine 1A receptor on rat hippocampal preparation; assay type: tissue-based, Hippocampus
T2 sequence (P19327 whole entry): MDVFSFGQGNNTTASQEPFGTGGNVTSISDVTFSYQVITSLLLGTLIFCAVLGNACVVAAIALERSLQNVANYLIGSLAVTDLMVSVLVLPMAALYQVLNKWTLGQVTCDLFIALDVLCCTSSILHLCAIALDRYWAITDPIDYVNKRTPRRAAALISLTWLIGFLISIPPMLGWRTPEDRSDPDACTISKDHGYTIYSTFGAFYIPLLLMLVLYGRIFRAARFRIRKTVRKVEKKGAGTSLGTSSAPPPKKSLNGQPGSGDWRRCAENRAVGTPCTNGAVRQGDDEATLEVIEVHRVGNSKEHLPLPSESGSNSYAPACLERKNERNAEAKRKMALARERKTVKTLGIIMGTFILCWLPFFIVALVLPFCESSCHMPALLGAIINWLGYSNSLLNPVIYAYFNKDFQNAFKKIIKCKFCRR

Rattus norvegicus [3] = test: In vivo DA d2 activity determined by measuring effects on DA synthesis by observing the changes in accumulation of (DOPA) after administration of a 10 mg/kg ip; assay type: functional; settings: route intraperitoneal
D(2) dopamine receptor [4] = molecular target: T1, D(2) dopamine receptor; test: Percentage intrinsic activity measured at DA D2 receptor by measuring its ability to […] [3H]-thymidine uptake in CHO-K1 cells transfected with the Dopamine receptor D2; assay type: cell-based
D(2) dopamine receptor [5] = molecular target: T1, D(2) dopamine receptor; test: The in vitro intrinsic activity was measured at DA D2 receptor by measuring its ability to increase [3H]thymidine uptake in CHO-K1 cells transfected with the Dopamine receptor D2; assay type: cell-based
[6] = molecular target: 5-hydroxytryptamine receptor 1A (Rattus norvegicus) (UniProt P19327); test: Intrinsic agonist activity at 5-HT1A receptors was measured in vivo by measuring changes in 5-HT levels after administration of compound by observing accumulation of the 5-HT […] 5-hydroxytryptophan (5-HTP) after administration of a 10 mg/k g ip
Rattus norvegicus [7] = test: In vivo DA D2 activity determined by measuring effects on DA synthesis by observing the changes in accumulation of (DOPA) after administration of a 10 mg/kg ip; assay type: functional; settings: route intraperitoneal
Mus musculus = test: The inhibited exploratory locomotor activity of compound in mice after ip administration; assay type: functional
[8] = The inhibition of Sidman avoidance responding of compound in squirrel monkeys after oral administration
Rattus norvegicus [9] = test: The inhibited exploratory locomotor activity of compound in rat after oral administration; assay type: functional
Rattus norvegicus [10] = test: The % decrease of rat striatal dopamine overflow at the dose of 10 mg/kg through ip.; assay type: functional
Rattus norvegicus [11] = test: The % decrease of rat striatal 5-HIAA overflow at the dose of 10 mg/kg through ip.; assay type: functional

T1 sequence (P14416 whole entry): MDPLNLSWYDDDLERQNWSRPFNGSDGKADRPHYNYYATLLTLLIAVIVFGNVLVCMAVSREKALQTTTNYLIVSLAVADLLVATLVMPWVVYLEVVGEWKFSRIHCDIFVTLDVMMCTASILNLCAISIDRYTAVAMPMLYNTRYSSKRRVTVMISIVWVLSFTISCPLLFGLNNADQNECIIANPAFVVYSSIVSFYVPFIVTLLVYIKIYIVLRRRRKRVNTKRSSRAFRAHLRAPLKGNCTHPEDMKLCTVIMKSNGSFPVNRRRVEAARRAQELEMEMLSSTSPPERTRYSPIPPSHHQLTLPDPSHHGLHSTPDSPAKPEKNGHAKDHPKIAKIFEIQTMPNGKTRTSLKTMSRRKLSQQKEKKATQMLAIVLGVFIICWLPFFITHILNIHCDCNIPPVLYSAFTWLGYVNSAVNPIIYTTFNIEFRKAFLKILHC
Chain of D(3) dopamine receptor (P35462 whole entry): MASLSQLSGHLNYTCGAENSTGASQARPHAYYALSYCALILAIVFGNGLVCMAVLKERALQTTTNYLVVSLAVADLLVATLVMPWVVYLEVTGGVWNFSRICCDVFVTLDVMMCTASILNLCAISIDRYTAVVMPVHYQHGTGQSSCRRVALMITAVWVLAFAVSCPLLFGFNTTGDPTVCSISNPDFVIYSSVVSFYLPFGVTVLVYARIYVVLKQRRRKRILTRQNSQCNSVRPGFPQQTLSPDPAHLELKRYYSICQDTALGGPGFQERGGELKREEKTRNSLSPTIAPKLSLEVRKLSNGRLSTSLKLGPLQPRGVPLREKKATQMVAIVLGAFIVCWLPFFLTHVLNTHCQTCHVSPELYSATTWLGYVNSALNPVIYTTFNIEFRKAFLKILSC

| Structure (SMILES) | Ki (D(3) dopamine receptor) [nM] | Ki (D(2) dopamine receptor [1]) [nM] | Ki [2] [nM] | further results |
| --- | --- | --- | --- | --- |
| c1ccc(N2CCN(CC[C@H]3CC[C@@H](Nc4ncccn4)CC3)CC2)cc1 | 29 |  |  |  |
| c1ccc(N2CCN(C3CCC(Nc4ncccn4)CC3)CC2)cc1 (stereo in doubt; 19) | 550 | 160 | 470 |  |
| c1cnc(N[C@H]2CC[C@H](CCN3CCN(c4ccncc4)CC3)CC2)nc1 | 2300 | 4800 | 730 |  |
| c1ccc(N2CCN(CC[C@H]3CC[C@H](Nc4ncccn4)CC3)CC2)nc1 | 26 |  | 2.2 | Control (Rattus norvegicus [3]): 159%; Intrinsic activity (D(2) dopamine receptor [4]): 41% |
| O=C(N[C@H]1CC[C@H](CCN2CCN(c3ccccc3)CC2)CC1)C1CCCCC1 |  |  | 5300 |  |
| c1cnc(N[C@H]2CC[C@H](CCN3CCN(c4ncccn4)CC3)CC2)nc1 | 590 | 240 | 8.6 |  |
| COc1ccc(N2CCN(CC[C@H]3CC[C@H](Nc4ncccn4)CC3)CC2)cc1 | 52 | 390 | 160 |  |
| FC(F)(F)c1cccc(N2CCN(CC[C@H]3CC[C@H](Nc4ncccn4)CC3)CC2)c1 | 32 | 6 | 13 |  |
| Clc1cccc(N2CCN(CC[C@H]3CC[C@H](Nc4ncccn4)CC3)CC2)c1Cl | 5 | 11 | 76 |  |
| c1cnc(N[C@H]2CC[C@H](CCN3CCN(c4cnccn4)CC3)CC2)nc1 | 210 | 180 | 29 |  |
| CN(CCc1ccccc1)CC[C@H]1CC[C@H](Nc2ncccn2)CC1 |  | 39 | 91 |  |
| c1ccc(N2CCN(C[C@H]3CC[C@H](Nc4ncccn4)CC3)CC2)cc1 | 89 | 5.7 | 41 |  |
| c1ccc(N2CCN(CC[C@H]3CC[C@H](Nc4ncnc5ccccc45)CC3)CC2)cc1 | 0.02 | 3.2 | 74 |  |
| c1cnc(N[C@H]2CC[C@H](CCN3CCc4ccccc4C3)CC2)nc1 | 40 | 110 | 44 |  |
| C1=C(c2ccccc2)CCN(CC[C@H]2CC[C@H](Nc3ncccn3)CC2)C1 | 3.7 | 4.7 | 3.9 |  |
| c1cnc(N[C@H]2CC[C@H](CCN3CCN(c4nccs4)CC3)CC2)nc1 |  | 46 | 10 |  |
| c1ccc(N2CCN(CCC[C@H]3CC[C@H](Nc4ncccn4)CC3)CC2)cc1 | 54 | 7.4 | 16 |  |
| Fc1ccc(N2CCN(CC[C@H]3CC[C@H](Nc4ncccn4)CC3)CC2)cc1 | 48 | 8.5 | 4.5 | IC50 (D(2) dopamine receptor [5]): 79 nM; Control (Rattus norvegicus [3]): 142%; Intrinsic activity (D(2) dopamine receptor [4]): 5%; Control [6]: 143% |
| COc1ccccc1N1CCN(CC[C@H]2CC[C@H](Nc3ncccn3)CC2)CC1 | 11 | 3 | 0.5 | IC50 (D(2) dopamine receptor [5]): 9.9 nM; Control (Rattus norvegicus [7]): 173%; Intrinsic activity (D(2) dopamine receptor [4]): 8%; Control [6]: 128% |
| CN(c1ncccn1)[C@H]1CC[C@H](CCN2CCN(c3ccccc3)CC2)CC1 | 24 | 4.8 | 4.7 |  |
| CCCN(CCC)CC[C@H]1CC[C@H](Nc2ncccn2)CC1 | 800 | 2400 |  |  |
| O=C(N[C@H]1CC[C@H](CCN2CCN(c3ccccc3)CC2)CC1)c1cccs1 |  |  | 57 |  |
| c1cnc(N[C@H]2CC[C@H](CCN3CCN(c4cccnc4)CC3)CC2)nc1 | 4.7 | 25 | 9.5 |  |
| c1ccc(N2CCN(CC[C@H]3CC[C@H](Nc4ncccn4)CC3)CC2)cc1 | 13.7 | 5.2 | 3.5 | ED50 (Mus musculus): 0.4 mg/kg; ED50 [8]: 0.28 mg/kg; EC50 (D(2) dopamine receptor [5]): 29 nM; Control (Rattus norvegicus [7]): 67%; Intrinsic activity (D(2) dopamine receptor [4]): 60%; ED50 (Rattus norvegicus [9]): 4.6 mg/kg; Decrease (Rattus norvegicus [10]): 50%; Decrease (Rattus norvegicus [11]): 42% |
| c1ccc(N2CCN(C3CCC(Nc4ncccn4)CC3)CC2)cc1 (stereo in doubt; 20) | 610 | 320 | 83 |  |
